# Experimental data published in EP0000190A1, “Solutions with a local anesthetic effect” (Dr. Karl Thomae GmbH, priority 1977, dated 1979).
# Tests used:
# [1] = Acute toxicity; conditions: mouse, in vivo, po, Maus, als Hydrochlorid
# [2] = system: Cornea; experiment: Local anaesthetic effect (touch stimulus) and corneal epithelium status after eye drops in rabbits, versus Kerakain; type: in vivo; conditions: Kaninchen
# Text: Die überlegene kurzfristige lokalanästhetische Wirkung der neuen Lösungen wurde im Vergleich zu Proxymetacain (0,5%ige 2-Diäthyl-aminoäthyl-3-amino-4-propoxybenzoesäure-hydrochlorid-Lösung = Chibro® -Kerakain) am Kaninchen wie folgt geprüft: • Den Versuchstieren, die nach Spaltlampen-Untersuchung keine Schädigung des Cornea-Epithels zeigten und klinisch keine konjunktivale Entzündung aufwiesen, wurden jeweils 2 Tropfen der entsprechenden Augentropfen appliziert. Die Sensibilität der zentralen Cornea ist eine Minute nach Applikation durch Berührungsreiz, das gesamte Hornhautepithel und die Sensibilität 5, 10, 15 und 30 Minuten nach Applikation beurteilt worden. Der Untersuchen. der die Sensibilität und den Hornhaut-Epithel-Status beurteilte, war hierbei nicht darüber informiert, welches Auge jeden Tieres mit Chibro® -Kerakain behandelt war.
# Die nachfolgende Tabelle enthält die aufgefundenen Versuchsergebnisse: […]
# [3] = system: Mund- bzw. Rachenschleimhaut; experiment: Local anaesthesia of human mouth and throat mucosa after spray from a metering pump valve; type: in vivo, Mensch; conditions: 2%ige NA 872-Lösung, 3-8 Hübe des Pump-Dosier-Ventils, Mund- bzw. Rachenschleimhaut des Menschen, 6 Probanden
# Text: Die oben aufgezeigte Wirkung konnte unter Heranziehung des Aesthe-siometers nach Cochet und Bonnet am menschlichen Auge mit Tropf- bzw. bei der Anwendung als Spray-Applikation mit Hilfe des Pump-Dosier-Ventils an der Mund- bzw. Rachenschleimhaut bestätigt werden. Bei einer Konzentration von 0,5 bis 1 % NA 872 und der Appli kation von 1 bis 2 Tropfen pro Auge tritt die lokalanästhetische Wirkung innerhalb von 30 bis 60 Sekunden ein, die Wirkungsdauer betrug 15 bis 30 Minuten, bzw. bei der Applikation einer 2%igen NA 872-Lösung mittels 3-8 Hüben des Pump-Dosier-Ventils an der Mund- bzw.
# [4] = 0,5 % NA 872, 2 Tropfen, 5 Minuten nach Applikation
# [5] = 1,0 % NA 872, 2 Tropfen, 5 Minuten nach Applikation
# [6] = 1,0 % NA 872, 2 Tropfen, 10 Minuten nach Applikation
# [7] = 1,0 % NA 872, 2 Tropfen, 15 Minuten nach Applikation
# [8] = 2,0 % NA 872, 2 Tropfen, 5 Minuten nach Applikation
# [9] = 2,0 % NA 872, 2 Tropfen, 10 Minuten nach Applikation
# [10] = Augentropfen, conclusion from the table
structure (smiles),measurement,setting,value
"Nc1c(Br)cc(Br)cc1CN[C@H]1CC[C@H](O)CC1 [NA 872, 2-Amino-3,5-dibrom-N-(trans-4-hydroxycyclohexyl)-benzylamin]",LD50,[1],2720 mg/kg
same,Erhobener Anästhesie-Befund (A),"[2]; 0,5 % NA 872, 2 Tropfen, 1 Minute nach Applikation",++
same,Erhobener Anästhesie-Befund (A),[2]; [4],+
same,Hornhaut-Befund (HH),[2]; [4],o.B.
same,Hornhaut-Befund (HH),"[2]; 0,5 % NA 872, 2 Tropfen, 10 Minuten nach Applikation",o.B.
same,Hornhaut-Befund (HH),"[2]; 0,5 % NA 872, 2 Tropfen, 15 Minuten nach Applikation",o.B.
same,Hornhaut-Befund (HH),"[2]; 0,5 % NA 872, 2 Tropfen, 30 Minuten nach Applikation",o.B.
same,Erhobener Anästhesie-Befund (A),"[2]; 1,0 % NA 872, 2 Tropfen, 1 Minute nach Applikation",++
same,Erhobener Anästhesie-Befund (A),[2]; [5],+
same,Hornhaut-Befund (HH),[2]; [5],o.B.
same,Erhobener Anästhesie-Befund (A),[2]; [6],+
same,Hornhaut-Befund (HH),[2]; [6],o.B.
same,Erhobener Anästhesie-Befund (A),[2]; [7],(+)
same,Hornhaut-Befund (HH),[2]; [7],o.B.
same,Hornhaut-Befund (HH),"[2]; 1,0 % NA 872, 2 Tropfen, 30 Minuten nach Applikation",o.B.
same,Erhobener Anästhesie-Befund (A),"[2]; 2,0 % NA 872, 2 Tropfen, 1 Minute nach Applikation",++
same,Erhobener Anästhesie-Befund (A),[2]; [8],++
same,Hornhaut-Befund (HH),[2]; [8],o.B.
same,Erhobener Anästhesie-Befund (A),[2]; [9],+
same,Hornhaut-Befund (HH),[2]; [9],o.B.
same,Hornhaut-Befund (HH),"[2]; 2,0 % NA 872, 2 Tropfen, 15 Minuten nach Applikation",o.B.
same,Hornhaut-Befund (HH),"[2]; 2,0 % NA 872, 2 Tropfen, 30 Minuten nach Applikation",o.B.
same,Nebenwirkung auf das Epithel im Vergleich zur Vergleichslösung,[2]; [10],geringere Nebenwirkung auf das Epithel
same,lokalanästhetische Wirkung im Vergleich zur Vergleichslösung,[2]; [10],kürzere lokalanästhetische Wirkung als die Vergleichslösung
same,Anästhesie,[3],leichte Anästhesie
